Literature values, collected in patent US20130064888A1, “PHARMACEUTICAL FORMULATIONS” (priority 2011, published 2013).

Assays:
[1] = at 25° C.; practically insoluble in water
[2] = many organic solvents, including ethanol

For “5-chloro-N-({(5S)-2-oxo-3-[4-(3-oxo-4-morpholinyl)-phenyl]-1,3-oxaolidin-5-yl}methyl-2-thiophencarboxamide [Rivaroxaban]”, the water solubility [1] is given as less than 0.1 mg/mL and the “solubility in organic solvents” value [2] is given as “low solubility”.
